Reference: paper PMC5419589 (Bioorganic & medicinal chemistry, 2016)

Key:
[1] = test system: T. brucei brucei strain BF427; assay: T. brucei growth inhibition assay; format: cell-based, Trypanosoma brucei brucei; details: for fold enhancement of potency with respect to compound 1: vs 1, T. brucei EC50; for activity on T. brucei cells (in words): T. brucei EC50 assay
[2] = test system: T. brucei brucei (strain TREU667); assay: Chronic; format: in vivo, mouse; details: for relapse with parasites in the blood / suppression of parasitemia during treatment phase: TREU667, 50 mg/kg twice a day oral day 21 to 34; for number of mice free of parasitemia/number of mice in the group: same dosing
[3] = day 35 post-infection, day 1 post-treatment
[4] = day 36 post-infection, day 2 post-treatment
[5] = day 37 post-infection, day 3 post-treatment
[6] = day 39 post-infection, day 5 post-treatment
[7] = day 38 post-infection, day 4 post-treatment
[8] = day 40 post-infection, day 6 post-treatment

Which “fold enhancement of potency with respect to compound 1” value (from here on “fold enhancement of potency”) [1] does the source give for `Cl.NCCN(C(=O)c1ccc(Cl)cc1Cl)c1ccc(Cl)cc1` [Compound 2, N-(2-Aminoethyl)-2,4-dichloro-N-(4-chlorophenyl)benzamide] here?
Its value is 4 fold.

With `Cl.NCCN(C(=O)c1ccc(Cl)cc1Cl)c1ccc(Br)cc1` [Compound 3, N-(2-Aminoethyl)-N-(4-bromophenyl)-2,4-dichlorobenzamide hydrochloride] as the compound, how does the “fold enhancement of potency” value [1] read?
Its value is 4 fold.

With `COc1ccc(N(CCN)C(=O)c2ccc(Cl)cc2Cl)cc1.Cl` [Compound 8, N-(2-Aminoethyl)-2,4-dichloro-N-(4-methoxyphenyl)benzamide hydrochloride] as the compound, how does the “activity on T. brucei cells (in words)” value [1] read?
The value was “eliminated activity”.

How did the “activity on T. brucei cells (in words)” value [1] turn out when `Cl.NCCN(C(=O)c1ccc(Cl)cc1Cl)c1ccc([N+](=O)[O-])cc1` [Compound 9, N-(2-Aminoethyl)-2,4-dichloro-N-(4-nitrophenyl)benzamide hydrochloride] was run?
Its value is “eliminated activity”.

With `Cl.NCCN(C(=O)c1ccc(Cl)cc1Cl)c1ccc(N)cc1` [Compound 10, N-(2-Aminoethyl)-N-(4-aminophenyl)-2,4-dichlorobenzamide] as the compound, how does the “activity on T. brucei cells (in words)” value [1] read?
Its value is “eliminated activity”.

Which “fold reduction of potency compared to compound 2” value ([1]; vs 2, T. brucei EC50) does the source give for `Cl.NCCN(C(=O)c1ccc(Cl)cc1Cl)c1cccc(Cl)c1` [Compound 11, N-(2-Aminoethyl)-2,4-dichloro-N-(3-chlorophenyl)benzamide hydrochloride] here?
The value was 10 fold.

With `Cl.NCCN(C(=O)c1ccc(Cl)cc1Cl)c1ccc(Cl)cc1Cl` [Compound 12, N-(2-Aminoethyl)-2,4-dichloro-N-(2,4-dichlorophenyl)benzamide] as the compound, how does the “fold enhancement of potency” value [1] read?
The value was “more than 2 fold”.

`Cl.NCCN(C(=O)c1ccc(Cl)cc1Cl)c1ccc(Oc2ccc(Cl)cc2)cc1` [Compound 16, N-(2-Aminoethyl)-2,4-dichloro-N-[4-(4-chlorophenoxy)phenyl] benzamide hydrochloride] was tested. Which “fold enhancement of potency” value [1] did it give?
The value was 7 fold.

For `CC(C)c1ccc(COc2ccc(N(CCN)C(=O)c3cccnc3Cl)cc2)cc1.Cl` [Compound 72, N-(2-Aminoethyl)-2-chloro-N-(4-{[4-(propan-2-yl)phenyl]methoxy}phenyl)pyridine-3-carboxamide hydrochloride], which “relapse with parasites in the blood” value [2] is on record?
The value was “all mice relapsed”.

What about the “suppression of parasitemia during treatment phase” value [2] of the same compound?
Its value is “complete suppression”.

What about the “number of mice free of parasitemia/number of mice in the group” value [2, 3] of the same compound?
The value was 5/5.

And the “number of mice free of parasitemia/number of mice in the group” value [2, 4]?
The value was 5/5.

And the “number of mice free of parasitemia/number of mice in the group” value [2, 5]?
The value was 4/5.

And the “number of mice free of parasitemia/number of mice in the group” value [2, 6]?
Its value is 2/5.

`Cc1cc(C)cc(COc2ccc(N(CCN)C(=O)c3ccc(Cl)cc3Cl)cc2)c1.Cl` [Compound 76, N-(2-Aminoethyl)-2,4-dichloro-N-{4-[(3,5-dimethylphenyl)methoxy]phenyl}benzamide hydrochloride] was tested. Which “relapse with parasites in the blood” value [2] did it give?
Its value is “all mice relapsed”.

What about the “suppression of parasitemia during treatment phase” value [2] of the same compound?
The value was “partial suppression”.

What about the “number of mice free of parasitemia/number of mice in the group” value [2, 3] of the same compound?
The value was 3/4.

What about the “number of mice free of parasitemia/number of mice in the group” value [2, 4] of the same compound?
The value was 3/4.

And the “number of mice free of parasitemia/number of mice in the group” value [2, 5]?
Its value is 3/4.

And the “number of mice free of parasitemia/number of mice in the group” value [2, 7]?
The value was 3/4.

And the “number of mice free of parasitemia/number of mice in the group” value [2, 6]?
Its value is 2/4.

What about the “number of mice free of parasitemia/number of mice in the group” value [2, 8] of the same compound?
Its value is 1/4.

For `N=C(N)c1ccc(/N=N/Nc2ccc(C(=N)N)cc2)cc1` [Diminazene, diminazene aceturate, reference compound], which “number of mice free of parasitemia/number of mice in the group” value [2, 3] is on record?
The value was 3/3.

And the “number of mice free of parasitemia/number of mice in the group” value [2, 4]?
The value was 3/3.

What about the “number of mice free of parasitemia/number of mice in the group” value [2, 5] of the same compound?
The value was 3/3.

What about the “number of mice free of parasitemia/number of mice in the group” value [2, 7] of the same compound?
Its value is 3/3.

What about the “number of mice free of parasitemia/number of mice in the group” value [2, 6] of the same compound?
Its value is 3/3.

And the “number of mice free of parasitemia/number of mice in the group” value [2, 8]?
The value was 3/3.

What about the “number of mice free of parasitemia/number of mice in the group” value ([2]; day 41–42 post-infection, day 7–8 post-treatment) of the same compound?
The value was 3/3.

And the “number of mice free of parasitemia/number of mice in the group” value ([2]; day 43–45 post-infection, day 9–11 post-treatment)?
The value was 3/3.

And the “number of mice free of parasitemia/number of mice in the group” value ([2]; day 46–49 post-infection, day 12–15 post-treatment)?
The value was 1/3.

And the “number of mice free of parasitemia/number of mice in the group” value ([2]; day 50–51 post-infection, day 16–17 post-treatment)?
The value was 0/3.

For `CC1(C)OB(O)c2cc(NC(=O)c3ccc(F)cc3C(F)(F)F)ccc21` [SCYX-7158, reference compound], which “cure in late-stage model (in words)” value ([2]; 50 mg/kg PO twice per day) is on record?
The value was “cured all mice”.
